Source: patent US20260256792A1, “TREATMENT OF CHRONIC SPONTANEOUS URTICARIA BY ADMINISTERING (R)-2-[3-[4-AMINO-3-(2-FLUORO-4-PHENOXY-PHENYL)PYRAZOLO[3,4-D]PYRIMIDIN-1-YL]PIPERIDINE-1-CARBONYL]-4-METHYL-4-[4-(OXETAN-3-YL)PIPERAZIN-1-YL]PENT-2-ENENITRILE” (priority 2023, published 2026)

System: angioedema in CSU patients
Experiment: Phase 2 CSU study: angioedema activity score over 7 days (AAS7)
Format: in vivo, human
Conditions: 400 mg QPM; for AAS7 Post-baseline Mean (SD) / Participants with AAS7 = 0, Responder n (%) / AAS7 % Change difference for rilzabrutinib vs. placebo LS Mean (95% CI) / AAS7 % Change from baseline LS Mean (SE) / AAS7 Change difference for rilzabrutinib vs. placebo LS Mean (95% CI) / AAS7 Change from baseline LS Mean (SE) / AAS7 = 0, Non-responder n (%) / AAS7 = 0, OR (95% CI) for rilzabrutinib vs. placebo / AAS7 = 0, RRD (%) for rilzabrutinib vs. placebo (95% CI): angioedema at baseline; for Non-responder n (%), AAS7 = 0 / OR (95% CI) for rilzabrutinib vs. placebo, AAS7 = 0 / RRD (%) for rilzabrutinib vs. placebo (95% CI), AAS7 = 0 / Responder n (%), AAS7 = 0: outlier removed
Source text: The study comprises a 12 week, randomized, double-blind, placebo-controlled, multi-center, dose-ranging efficacy and safety phase, followed by a 40 week open label extension (OLE) phase (see FIG. 1). The study consists of three phases and an optional OLE phase. […] The weekly angioedema activity score (AAS7) was proposed as a tertiary endpoint. […] Patients were to complete the AAS using the e-diary. The e-diary was to be used once daily on the same time of each day recording of participant's answers to the angioedema activity score over 7 days (AAS7) questionnaire.

## CC(C)(C=C(C#N)C(=O)N1CCC[C@@H](n2nc(-c3ccc(Oc4ccccc4)cc3F)c3c(N)ncnc32)C1)N1CCN(C2COC2)CC1 [rilzabrutinib, (R)-2-[3-[4-amino-3-(2-fluoro-4-phenoxy-phenyl)pyrazolo[3,4-d]pyrimidin-1-yl]piperidine-1-carbonyl]-4-methyl-4-[4-(oxetan-3-yl)piperazin-1-yl]pent-2-enenitrile]
Week 8, omalizumab-naïve
  AAS7 Post-baseline Mean (SD): 24.98 (23.29)
  Participants with AAS7 = 0, Responder n (%): 7 (25.9) n (%)
Week 9, ITT
  AAS7 % Change difference for rilzabrutinib vs. placebo LS Mean (95% CI): 1.53 (−27.52, 30.59) %
  AAS7 % Change from baseline LS Mean (SE): −48.50 (10.95) %
  AAS7 Change difference for rilzabrutinib vs. placebo LS Mean (95% CI): 2.98 (−7.44, 13.40)
  AAS7 Change from baseline LS Mean (SE): −26.47 (3.93)
  AAS7 Post-baseline Mean (SD): 27.24 (21.46)
Week 9, omalizumab-naïve
  Non-responder n (%), AAS7 = 0: 24 (64.9) n (%)
  OR (95% CI) for rilzabrutinib vs. placebo, AAS7 = 0: 0.520
  RRD (%) for rilzabrutinib vs. placebo (95% CI), AAS7 = 0: −15.0 %
  Responder n (%), AAS7 = 0: 13 (35.1) n (%)
  AAS7 % Change from baseline LS Mean (SE): −47.25 (11.58) %
  AAS7 = 0, Non-responder n (%): 22 (81.5) n (%)
  AAS7 = 0, OR (95% CI) for rilzabrutinib vs. placebo: 0.431
  AAS7 = 0, RRD (%) for rilzabrutinib vs. placebo (95% CI): −15.5 %
  AAS7 Post-baseline Mean (SD): 27.96 (21.62)
  Participants with AAS7 = 0, Responder n (%): 5 (18.5) n (%)
Week 10, ITT
  AAS7 % Change difference for rilzabrutinib vs. placebo LS Mean (95% CI): −1.14 (−41.08, 38.79) %
  AAS7 % Change from baseline LS Mean (SE): −50.13 (14.94) %
  AAS7 Change difference for rilzabrutinib vs. placebo LS Mean (95% CI): 2.53 (−8.76, 13.81)
  AAS7 Change from baseline LS Mean (SE): −27.81 (4.28)
  AAS7 Post-baseline Mean (SD): 26.59 (23.15)
Week 10, omalizumab-naïve
  Non-responder n (%), AAS7 = 0: 20 (54.1) n (%)
  OR (95% CI) for rilzabrutinib vs. placebo, AAS7 = 0: 0.927
  RRD (%) for rilzabrutinib vs. placebo (95% CI), AAS7 = 0: −1.9 %
  Responder n (%), AAS7 = 0: 17 (45.9) n (%)
  AAS7 = 0, Non-responder n (%): 20 (74.1) n (%)
  AAS7 = 0, OR (95% CI) for rilzabrutinib vs. placebo: 0.616
  AAS7 = 0, RRD (%) for rilzabrutinib vs. placebo (95% CI): −9.2 %
  AAS7 Post-baseline Mean (SD): 27.70 (22.96)
  Participants with AAS7 = 0, Responder n (%): 7 (25.9) n (%)
Week 11, ITT
  AAS7 % Change difference for rilzabrutinib vs. placebo LS Mean (95% CI): 7.61 (−19.90, 35.12) %
  AAS7 Change difference for rilzabrutinib vs. placebo LS Mean (95% CI): 5.18 (−6.05, 16.41)
  AAS7 Change from baseline LS Mean (SE): −28.68 (4.16)
  AAS7 Post-baseline Mean (SD): 26.34 (24.19)
Week 11, omalizumab-naïve
  Non-responder n (%), AAS7 = 0: 20 (54.1) n (%)
  OR (95% CI) for rilzabrutinib vs. placebo, AAS7 = 0: 0.819
  RRD (%) for rilzabrutinib vs. placebo (95% CI), AAS7 = 0: −4.7 %
  Responder n (%), AAS7 = 0: 17 (45.9) n (%)
  AAS7 = 0, Non-responder n (%): 19 (70.4) n (%)
  AAS7 = 0, OR (95% CI) for rilzabrutinib vs. placebo: 0.650
  AAS7 = 0, RRD (%) for rilzabrutinib vs. placebo (95% CI): −8.6 %
  AAS7 Post-baseline Mean (SD): 27.44 (24.07)
  Participants with AAS7 = 0, Responder n (%): 8 (29.6) n (%)
Week 12, ITT
  AAS7 % Change difference for rilzabrutinib vs. placebo LS Mean (95% CI): 8.18 (−17.80, 34.16) %
  AAS7 % Change from baseline LS Mean (SE): −54.80 (9.75) %
  AAS7 Change difference for rilzabrutinib vs. placebo LS Mean (95% CI): 6.68 (−4.00, 17.35)
  AAS7 Change from baseline LS Mean (SE): −28.63 (4.01)
  AAS7 Post-baseline Mean (SD): 24.92 (22.92)
Week 12, omalizumab-naïve
  Non-responder n (%), AAS7 = 0: 24 (64.9) n (%)
  OR (95% CI) for rilzabrutinib vs. placebo, AAS7 = 0: 0.516
  RRD (%) for rilzabrutinib vs. placebo (95% CI), AAS7 = 0: −15.0 %
  Responder n (%), AAS7 = 0: 13 (35.1) n (%)
  AAS7 = 0, Non-responder n (%): 21 (77.8) n (%)
  AAS7 = 0, OR (95% CI) for rilzabrutinib vs. placebo: 0.571
  AAS7 = 0, RRD (%) for rilzabrutinib vs. placebo (95% CI): −11.2 %
  AAS7 Change difference for rilzabrutinib vs. placebo LS Mean (95% CI): 6.41 (−5.00, 17.81)
  AAS7 Change from baseline LS Mean (SE): −26.98 (4.16)
  AAS7 Post-baseline Mean (SD): 25.87 (23.04)
